Key:
[1] = target: T1, human α1G T-type channels (Homo sapiens, UniProt O43497); experiment: T-type calcium channel block, whole cell patch clamp in HEK cells; format: cell-based; details: HEK cells stably expressing human α1G; measured at 1 μM drug; mainly non-inactivated protocol
T1 construct: expressed in transfected cells; host or cells: HEK 293
Procedure: (§1) T-type calcium channel blocking activity was assayed in human embryonic kidney cells, HEK 293, stably transfected with the T-type calcium channel subunits. Briefly, cells were cultured in Dulbecco's modified eagle medium (DMEM) supplemented with 10% fetal bovine serum, 200 U/ml penicillin and 0.2 mg/ml streptomycin at 37° C. with 5% CO2. At 85% confluency cells were split with 0.25% trypsin/1 mM EDTA and plated at 10% confluency on glass coverslips. At 12 hours the medium was replaced and the cells stably transfected using a standard calcium phosphate protocol and the appropriate calcium channel cDNA's. Fresh DMEM was supplied and the cells transferred to 28° C./5% CO2. Cells were incubated for 1 to 2 days prior to whole cell recording.
(§2) Standard patch-clamp techniques were employed to identify blockers of T-type currents. Briefly, previously described HEK cell lines stably expressing human α1G, α1H and α1I T-type channels were used for all the recordings (passage #: 4-20, 37° C., 5% CO2). Whole cell patch clamp experiments were performed using an Axopatch 200B amplifier (Axon Instruments, Burlingame, Calif.) linked to a personal computer equipped with pCLAMP software. Data were analyzed using Clampfit (Axon Instruments) and SigmaPlot 4.0 (Jandel Scientific). To obtain T-type currents, plastic dishes containing semi-confluent cells were positioned on the stage of a ZEISS AXIOVERT S100 microscope after replacing the culture medium with external solution (see below). Whole-cell patches were obtained using pipettes (borosilicate glass with filament, O.D.: 1.5 mm, I.D.: 0.86 mm, 10 cm length), fabricated on a SUTTER P-97 puller with resistance values of ˜5 MΩ (see below for internal solution).
(§3) In the non-inactivating protocol, the holding potential is set at −110 mV and with a pre-pulse at −100 mV for 1 second prior to the test pulse at −40 mV for 50 ms. In the inactivation protocol, the pre-pulse is at approximately −85 mV for 1 second, which inactivates about 15% of the T-type channels.
(§4) Test compounds were dissolved in external solution, 0.1-0.01% DMSO. After ˜10 min rest, they were applied by gravity close to the cell using a WPI microfil tubing. The “non-inactivated” pre-pulse was used to examine the resting block of a compound. The “inactivated” protocol was employed to study voltage-dependent block. However, the initial data shown below were mainly obtained using the non-inactivated protocol only. Kd values are shown for various compounds of the invention in Table 4 measured at 1 μM for the drug of interest except for compound 18 which was measured at 200 nM.

[2] = target: T2, human α1H T-type channels (Homo sapiens, UniProt O95180); experiment: as above; format: cell-based; details: HEK cells stably expressing human α1H; measured at 1 μM drug; mainly non-inactivated protocol
T2 construct: expressed in transfected cells; host or cells: HEK 293
T2 sequence (O95180 whole entry): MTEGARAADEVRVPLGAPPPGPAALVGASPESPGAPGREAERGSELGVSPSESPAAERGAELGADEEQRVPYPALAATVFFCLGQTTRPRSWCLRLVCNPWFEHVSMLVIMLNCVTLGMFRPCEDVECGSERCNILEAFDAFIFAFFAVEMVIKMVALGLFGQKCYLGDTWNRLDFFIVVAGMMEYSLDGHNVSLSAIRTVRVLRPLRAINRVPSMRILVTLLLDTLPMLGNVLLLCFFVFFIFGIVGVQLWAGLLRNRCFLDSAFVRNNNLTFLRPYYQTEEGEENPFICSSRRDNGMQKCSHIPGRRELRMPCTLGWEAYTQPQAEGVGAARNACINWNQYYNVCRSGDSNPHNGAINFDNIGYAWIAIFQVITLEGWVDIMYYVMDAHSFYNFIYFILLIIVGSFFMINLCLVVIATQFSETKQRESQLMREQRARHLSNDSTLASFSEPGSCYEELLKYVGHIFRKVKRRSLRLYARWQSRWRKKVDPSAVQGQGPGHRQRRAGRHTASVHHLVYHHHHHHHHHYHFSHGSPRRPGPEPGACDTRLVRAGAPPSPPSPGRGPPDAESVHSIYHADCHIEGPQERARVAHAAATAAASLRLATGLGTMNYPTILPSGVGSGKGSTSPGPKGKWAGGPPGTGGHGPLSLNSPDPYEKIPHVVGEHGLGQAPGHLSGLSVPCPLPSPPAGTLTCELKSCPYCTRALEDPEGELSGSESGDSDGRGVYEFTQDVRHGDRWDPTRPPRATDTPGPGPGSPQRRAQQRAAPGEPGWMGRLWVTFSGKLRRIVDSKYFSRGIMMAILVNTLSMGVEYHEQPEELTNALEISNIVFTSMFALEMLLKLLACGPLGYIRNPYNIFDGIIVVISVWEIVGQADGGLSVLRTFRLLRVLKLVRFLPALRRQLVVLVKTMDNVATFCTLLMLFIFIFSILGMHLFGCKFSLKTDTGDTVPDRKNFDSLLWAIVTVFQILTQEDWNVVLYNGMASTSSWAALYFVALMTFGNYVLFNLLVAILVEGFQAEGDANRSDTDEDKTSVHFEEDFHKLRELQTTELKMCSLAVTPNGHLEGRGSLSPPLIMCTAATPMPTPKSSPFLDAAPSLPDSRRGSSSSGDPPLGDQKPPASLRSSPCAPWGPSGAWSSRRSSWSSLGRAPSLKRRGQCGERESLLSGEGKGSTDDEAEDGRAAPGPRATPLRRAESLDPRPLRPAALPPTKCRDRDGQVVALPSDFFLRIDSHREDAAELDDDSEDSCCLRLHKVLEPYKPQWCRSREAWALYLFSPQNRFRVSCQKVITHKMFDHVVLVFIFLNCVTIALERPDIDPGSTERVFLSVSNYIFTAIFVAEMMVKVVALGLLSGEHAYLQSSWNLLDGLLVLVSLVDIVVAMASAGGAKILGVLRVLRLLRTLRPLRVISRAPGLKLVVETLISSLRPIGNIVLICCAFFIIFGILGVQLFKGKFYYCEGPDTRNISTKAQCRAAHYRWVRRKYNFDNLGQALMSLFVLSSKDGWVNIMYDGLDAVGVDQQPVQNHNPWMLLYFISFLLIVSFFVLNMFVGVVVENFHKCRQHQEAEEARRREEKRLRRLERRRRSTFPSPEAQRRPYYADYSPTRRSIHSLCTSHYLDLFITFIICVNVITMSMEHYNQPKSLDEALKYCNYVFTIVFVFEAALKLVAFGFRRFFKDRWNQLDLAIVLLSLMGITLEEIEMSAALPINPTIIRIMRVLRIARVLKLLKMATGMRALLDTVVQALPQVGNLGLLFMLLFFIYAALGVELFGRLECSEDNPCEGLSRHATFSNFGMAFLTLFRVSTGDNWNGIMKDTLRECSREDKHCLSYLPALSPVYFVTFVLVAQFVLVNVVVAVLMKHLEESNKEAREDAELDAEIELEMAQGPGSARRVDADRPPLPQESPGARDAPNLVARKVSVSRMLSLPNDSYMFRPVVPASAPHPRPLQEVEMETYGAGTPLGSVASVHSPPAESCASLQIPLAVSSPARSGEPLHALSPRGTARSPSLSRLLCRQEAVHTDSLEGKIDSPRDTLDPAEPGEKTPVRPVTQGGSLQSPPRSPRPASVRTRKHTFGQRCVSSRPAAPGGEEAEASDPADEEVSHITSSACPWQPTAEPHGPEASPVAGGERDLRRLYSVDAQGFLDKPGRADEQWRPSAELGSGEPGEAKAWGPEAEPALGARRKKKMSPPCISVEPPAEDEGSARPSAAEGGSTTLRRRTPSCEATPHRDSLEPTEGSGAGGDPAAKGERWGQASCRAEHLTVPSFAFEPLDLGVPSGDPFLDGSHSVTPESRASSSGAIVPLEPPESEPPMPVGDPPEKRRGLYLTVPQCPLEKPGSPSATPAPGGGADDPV
Procedure: as §1, §2, §3, §4

T1 sequence (O43497 whole entry): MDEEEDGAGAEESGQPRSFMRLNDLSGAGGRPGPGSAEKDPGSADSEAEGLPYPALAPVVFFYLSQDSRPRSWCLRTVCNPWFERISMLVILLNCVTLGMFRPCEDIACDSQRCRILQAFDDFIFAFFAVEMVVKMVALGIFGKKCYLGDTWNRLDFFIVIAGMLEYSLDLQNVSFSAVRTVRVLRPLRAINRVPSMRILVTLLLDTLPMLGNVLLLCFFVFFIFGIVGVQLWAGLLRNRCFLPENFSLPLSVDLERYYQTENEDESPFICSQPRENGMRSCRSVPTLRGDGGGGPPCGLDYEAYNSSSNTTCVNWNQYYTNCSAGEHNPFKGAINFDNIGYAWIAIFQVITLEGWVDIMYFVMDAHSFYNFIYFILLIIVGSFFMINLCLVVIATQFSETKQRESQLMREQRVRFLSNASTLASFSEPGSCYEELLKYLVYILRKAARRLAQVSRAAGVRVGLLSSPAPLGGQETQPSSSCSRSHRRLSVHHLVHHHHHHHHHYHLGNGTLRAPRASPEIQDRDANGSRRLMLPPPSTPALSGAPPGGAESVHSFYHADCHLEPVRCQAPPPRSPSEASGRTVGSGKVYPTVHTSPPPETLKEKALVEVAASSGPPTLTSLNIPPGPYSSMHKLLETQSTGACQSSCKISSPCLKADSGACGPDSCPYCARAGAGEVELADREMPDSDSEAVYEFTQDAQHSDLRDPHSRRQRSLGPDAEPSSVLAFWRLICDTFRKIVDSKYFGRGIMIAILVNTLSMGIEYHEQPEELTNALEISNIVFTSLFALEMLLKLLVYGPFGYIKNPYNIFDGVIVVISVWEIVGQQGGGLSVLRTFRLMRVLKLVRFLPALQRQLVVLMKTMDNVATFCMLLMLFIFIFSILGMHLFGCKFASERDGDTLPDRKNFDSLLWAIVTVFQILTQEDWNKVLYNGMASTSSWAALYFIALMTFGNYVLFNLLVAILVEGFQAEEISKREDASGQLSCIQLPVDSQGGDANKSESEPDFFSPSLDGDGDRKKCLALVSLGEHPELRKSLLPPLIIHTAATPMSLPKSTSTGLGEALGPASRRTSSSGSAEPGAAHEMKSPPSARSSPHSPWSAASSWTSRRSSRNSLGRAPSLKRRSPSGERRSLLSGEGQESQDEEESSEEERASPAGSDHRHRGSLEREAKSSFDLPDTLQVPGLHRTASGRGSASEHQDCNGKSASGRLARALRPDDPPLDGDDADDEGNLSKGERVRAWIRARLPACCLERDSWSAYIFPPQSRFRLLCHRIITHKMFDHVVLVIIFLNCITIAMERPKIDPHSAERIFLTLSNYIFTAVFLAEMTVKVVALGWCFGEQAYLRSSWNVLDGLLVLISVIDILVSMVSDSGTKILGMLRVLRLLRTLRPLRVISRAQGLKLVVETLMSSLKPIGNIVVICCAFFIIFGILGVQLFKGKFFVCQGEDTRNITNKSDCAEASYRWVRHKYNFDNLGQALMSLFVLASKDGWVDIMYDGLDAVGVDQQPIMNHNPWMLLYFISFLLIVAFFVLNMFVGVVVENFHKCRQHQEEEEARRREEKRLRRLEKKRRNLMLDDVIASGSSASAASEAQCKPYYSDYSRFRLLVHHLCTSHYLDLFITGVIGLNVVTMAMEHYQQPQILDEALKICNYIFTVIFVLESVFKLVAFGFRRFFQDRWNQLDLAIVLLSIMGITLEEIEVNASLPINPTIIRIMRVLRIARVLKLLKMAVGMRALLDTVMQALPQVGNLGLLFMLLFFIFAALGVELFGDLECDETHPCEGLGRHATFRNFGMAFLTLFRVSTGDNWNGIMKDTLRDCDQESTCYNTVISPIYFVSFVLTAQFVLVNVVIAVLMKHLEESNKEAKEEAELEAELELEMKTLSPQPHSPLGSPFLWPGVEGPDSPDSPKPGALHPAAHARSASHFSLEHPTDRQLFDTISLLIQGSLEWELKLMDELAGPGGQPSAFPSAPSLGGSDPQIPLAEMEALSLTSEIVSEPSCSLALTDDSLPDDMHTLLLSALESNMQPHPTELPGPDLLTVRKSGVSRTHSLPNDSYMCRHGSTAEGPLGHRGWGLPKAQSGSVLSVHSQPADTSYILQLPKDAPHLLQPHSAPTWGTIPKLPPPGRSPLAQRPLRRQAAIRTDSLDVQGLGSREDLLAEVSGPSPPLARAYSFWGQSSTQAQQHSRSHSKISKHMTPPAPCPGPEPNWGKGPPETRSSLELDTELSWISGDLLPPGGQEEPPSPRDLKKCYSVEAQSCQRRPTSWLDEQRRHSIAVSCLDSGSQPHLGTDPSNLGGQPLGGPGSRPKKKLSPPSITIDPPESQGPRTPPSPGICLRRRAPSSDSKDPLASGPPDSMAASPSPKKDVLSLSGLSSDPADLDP

Row | Kd [1] | Kd [2] | SMILES
1 | 1.84 µM | – | Cc1c(C(=O)N2CCC(C(F)(F)F)CC2)sc2ncn(CC(=O)Nc3cccc(C(F)(F)F)c3)c(=O)c12 [Compound 63]
2 | 1.96 µM | 1.06 µM | Cc1c(C(=O)N2CCN(c3cccc(C(F)(F)F)c3)CC2)sc2ncn(CC(=O)NC(C)(C)C)c(=O)c12 [Compound 12, N-tert-butyl-2-(5-methyl-4-oxo-6-(4-(3-(trifluoromethyl)phenyl)piperazine-1-carbonyl)thieno[2,3-d]pyrimidin-3(4H)-yl)acetamide]
3 | 2.7 µM | – | Cc1c(C(=O)N2CCN(c3cc(C(F)(F)F)cc(C(F)(F)F)c3)CC2)sc2ncn(CCN3CCCC3=O)c(=O)c12 [Compound 93, 6-(4-(3,5-bis(trifluoromethyl)phenyl)piperazine-1-carbonyl)-5-methyl-3-(2-(2-oxopyrrolidin-1-yl)ethyl)thieno[2,3-d]pyrimidin-4(3H)-one]
4 | 2.8 µM | – | Cc1c(C(N)=O)sc2ncn(CC(=O)Nc3cc(C(F)(F)F)cc(C(F)(F)F)c3)c(=O)c12 [Compound 67, 3-(2-(3,5-bis(trifluoromethyl)phenylamino)-2-oxoethyl)-5-methyl-4-oxo-3,4-dihydrothieno[2,3-d]pyrimidine-6-carboxamide]
5 | > 74.3 µM | – | Cc1c(C(=O)N2CC[C@H](F)C2)sc2ncn(CC(=O)Nc3cc(C(F)(F)F)cc(C(F)(F)F)c3)c(=O)c12 [Compound 71, (S)-N-(3,5-bis(trifluoromethyl)phenyl)-2-(5-methyl-4-oxo-6-(3-fluoropyrrolidine-1-carbonyl)thieno[2,3-d]pyrimidin-3(4H)-yl)acetamide]
6 | 5.31 µM | – | Cc1c(C(=O)N2CCCC2)sc2ncn(CC(=O)Nc3cc(C(F)(F)F)cc(C(F)(F)F)c3)c(=O)c12 [Compound 70, N-(3,5-bis(trifluoromethyl)phenyl)-2-(5-methyl-4-oxo-6-(pyrrolidine-1-carbonyl)thieno[2,3-d]pyrimidin-3(4H)-yl)acetamide]
7 | 3.73 µM | – | CCN(CC)C(=O)Cn1cnc2sc(C(=O)N3CCN(c4ccccc4C(F)(F)F)CC3)c(C)c2c1=O [Compound 9, N,N-diethyl-2-(5-methyl-4-oxo-6-(4-(2-(trifluoromethyl)phenyl)piperazine-1-carbonyl)thieno[2,3-d]pyrimidin-3(4H)-yl)acetamide]
8 | 0.4 µM | – | Cc1c(C(=O)NC(C)(C)C)sc2ncn(CC(=O)Nc3cc(C(F)(F)F)cc(C(F)(F)F)c3)c(=O)c12 [Compound 68, 3-(2-(3,5-bis(trifluoromethyl)phenylamino)-2-oxoethyl)-N-tert-butyl-5-methyl-4-oxo-3,4-dihydrothieno[2,3-d]pyrimidine-6-carboxamide]
9 | – | 2.14 µM | Cc1c(C(=O)N2CCN(c3ccccc3)CC2)sc2ncn(CC(=O)NC(C)(C)C)c(=O)c12 [Compound 13, N-tert-butyl-2-(5-methyl-4-oxo-6-(4-phenylpiperazine-1-carbonyl)thieno[2,3-d]pyrimidin-3(4H)-yl)acetamide]

Second part, the compound before the results:

Row | SMILES | Kd [1] | Kd [2]
10 | Cc1c(C(=O)N2CCN(c3cccc(Cl)c3)CC2)sc2ncn(CC(=O)N3CCC(F)(F)C3)c(=O)c12 [Compound 78, 6-(4-(3-chlorophenyl)-piperazine-1-carbonyl)-3-(2-(3,3-difluoropyrrolidin-1-yl)-2-oxoethyl)-5-methylthieno[2,3-d]pyrimidin-4(3H)-one] | 0.62 µM | 0.4 µM
11 | Cc1c(C(=O)N2CCN(c3ccc(F)cc3)CC2)sc2ncn(CC(=O)N3CC[C@H](F)C3)c(=O)c12 [Compound 91, (S)-6-(4-(4-fluorophenyl)-piperazine-1-carbonyl)-3-(2-(3-fluoropyrrolidin-1-yl)-2-oxoethyl)-5-methylthieno[2,3-d]pyrimidin-4(3H)-one] | – | 6.31 µM
12 | Cc1c(C(=O)N2CCN(c3ccccc3F)CC2)sc2ncn(CCN3CCCC3=O)c(=O)c12 [Compound 95, 6-(4-(2-fluorophenyl)piperazine-1-carbonyl)-5-methyl-3-(2-(2-oxopyrrolidin-1-yl)ethyl)thieno[2,3-d]pyrimidin-4(3H)-one] | 2.66 µM | –
13 | CCN(CC)C(=O)Cn1cnc2sc(C(=O)N3CCN(c4cccc(F)c4)CC3)c(C)c2c1=O [Compound 7, N,N-diethyl-2-(6-(4-(3-fluorophenyl)piperazine-1-carbonyl)-5-methyl-4-oxothieno[2,3-d]pyrimidin-3(4H)-yl)acetamide] | – | 1.14 µM
14 | Cc1c(C(=O)N2CCN(c3ccccc3F)CC2)sc2ncn(C(C)C(=O)NC3CCCC3)c(=O)c12 (stereo not shown) [Compound 47, N-cyclopentyl-2-(6-(4-(2-fluorophenyl)piperazine-1-carbonyl)-5-methyl-4-oxothieno[2,3-d]pyrimidin-3(4H)-yl)propanamide] | – | 0.56 µM
15 | Cc1c(C(=O)N2CCN(c3ccc(F)cc3)CC2)sc2ncn(CC(=O)N3CCC(F)(F)C3)c(=O)c12 [Compound 90] | – | 2.44 µM
16 | Cc1c(C(=O)N2CCN(c3cccc(Cl)c3)CC2)sc2ncn(CC(=O)N3CCCC3)c(=O)c12 [Compound 136, 6-(4-(3-chloro-phenyl)piperazine-1-carbonyl)-5-methyl-3-(2-oxo-2-(pyrrolidin-1-yl)ethyl)thieno[2,3-d]pyrimidin-4(3H)-one] | 1.56 µM | –
17 | Cc1c(C(=O)N2CCN(c3ccccc3F)CC2)sc2ncn(CC(=O)N3CCC(F)(F)C3)c(=O)c12 [Compound 79, 3-(2-(3,3-difluoropyrrolidin-1-yl)-2-oxoethyl)-6-(4-(2-fluorophenyl)piperazine-1-carbonyl)-5-methylthieno[2,3-d]pyrimidin-4(3H)-one] | – | 4.64 µM
18 | CCN(CC(F)(F)F)C(=O)Cn1cnc2sc(C(=O)N3CCN(c4ccccc4F)CC3)c(C)c2c1=O [Compound 128, N-ethyl-2-(6-(4-(2-fluoro-phenyl)piperazine-1-carbonyl)-5-methyl-4-oxothieno[2,3-d]pyrimidin-3(4H)-yl)-N-(2,2,2-trifluoroethyl)acetamide] | 3.6 µM | –
19 | Cc1c(C(=O)N2CCN(c3ccc(Cl)cc3)CC2)sc2ncn(CCN3CCCC3=O)c(=O)c12 [Compound 94, 6-(4-(4-chlorophenyl)piperazine-1-carbonyl)-5-methyl-3-(2-(2-oxopyrrolidin-1-yl)ethyl)thieno[2,3-d]pyrimidin-4(3H)-one] | 20.3 µM | –
20 | Cc1c(C(=O)N2CCN(c3ccccc3F)CC2)sc2ncn(CC(=O)Nc3ccccc3)c(=O)c12 [Compound 51, 2-(6-(4-(2-fluorophenyl)piperazine-1-carbonyl)-5-methyl-4-oxothieno[2,3-d]pyrimidin-3(4H)-yl)-N-phenylacetamide] | – | 0.57 µM
21 | Cc1c(C(=O)N2CCN(c3ccccc3)CC2)sc2ncn(C(C)C(=O)NC3CCCC3)c(=O)c12 (stereo not shown) [Compound 46, N-cyclopentyl-2-(5-methyl-4-oxo-6-(4-phenylpiperazine-1-carbonyl)thieno[2,3-d]pyrimidin-3(4H)-yl)propanamide] | – | 0.52 µM
22 | Cc1c(C(=O)N2CCN(c3cccc([N+](=O)[O-])c3)CC2)sc2ncn(CC(=O)NC3CCCCC3)c(=O)c12 [Compound 29, N-cyclohexyl-2-(5-methyl-6-(4-(3-nitrophenyl)piperazine-1-carbonyl)-4-oxothieno[2,3-d]pyrimidin-3(4H)-yl)acetamide] | – | 0.95 µM
23 | CCN(CC)C(=O)Cn1cnc2sc(C(=O)N3CCN(c4ccccc4Cl)CC3)c(C)c2c1=O [Compound 4, 2-(6-(4-(2-chlorophenyl)piperazine-1-carbonyl)-5-methyl-4-oxothieno[2,3-d]pyrimidin-3(4H)-yl)-N,N-diethylacetamide] | 4.12 µM | –
24 | Cc1c(C(=O)N2CCN(c3ccccc3)CC2)sc2ncn(CC(=O)NC3CCCC3)c(=O)c12 [Compound 41, N-cyclopentyl-2-(5-methyl-4-oxo-6-(4-phenylpiperazine-1-carbonyl)thieno[2,3-d]pyrimidin-3(4H)-yl)acetamide] | – | 0.83 µM
25 | O=C(Cn1cnc2ccc(C(=O)N3CCN(c4cccc(Cl)c4)CC3)cc2c1=O)N1CCCC1 [Compound 115, 6-(4-(3-chlorophenyl)piperazine-1-carbonyl)-3-(2-oxo-2-(pyrrolidin-1-yl)ethyl) quinazolin-4(3H)-one] | 4.28 µM | –
26 | Cc1c(C(=O)N2CCN(c3ccccc3F)CC2)sc2ncn(C(C)C(=O)NC3CCCCC3)c(=O)c12 (stereo not shown) [Compound 34, N-cyclohexyl-2-(6-(4-(2-fluorophenyl)piperazine-1-carbonyl)-5-methyl-4-oxothieno[2,3-d]pyrimidin-3(4H)-yl)propanamide] | – | 0.44 µM
